The data set is described as follows: photoluminescence quantum yield (fraction); solvent given as SMILES.

On to `CCN(CC)c1ccc([N+]2=Cc3ccc4c5c(ccc4c3O[B-]2(c2c(F)c(F)c(F)c(F)c2F)c2c(F)c(F)c(F)c(F)c2F)C=[N+](c2ccc(N(CC)CC)cc2)[B-](c2c(F)c(F)c(F)c(F)c2F)(c2c(F)c(F)c(F)c(F)c2F)O5)cc1`, for which the photoluminescence quantum yield is, setting by setting: (in Cc1ccccc1) 0.33; (in ClCCl) 0.1.
Molecule `C(=C\c1nc2ccccc2s1)/c1ccc(-c2nc3c4cccnc4c4ncccc4c3[nH]2)cc1` came in with a photoluminescence quantum yield (in C1CCOC1) of 0.33, a photoluminescence quantum yield (in CC#N) of 0.17, a photoluminescence quantum yield (in CO) of 0.11 and a photoluminescence quantum yield (in ClCCl) of 0.25.
As to `COC(=O)C(Cc1ccc2oc(-c3ccc(N(C)c4ccccc4)cc3)nc2c1)NC(=O)OC(C)(C)C` (stereo not given), the photoluminescence quantum yield reads like this: (in C1CCCCC1) 0.998; (in C1CCOC1) 0.27; (in C1COCCO1) 0.73; (in CC1CCCO1) 0.52; (in CC1COC(=O)O1) 0.11; (in CC#N) 0.11. In addition, the photoluminescence quantum yield is, setting by setting: (in CC(C)=O) 0.19; (in CC(C)CC(C)(C)C) 1; (in CC(C)CO) 0.2; (in CC(C)O) 0.19; (in CC(O)CO) 0.11; (in CCC(C)CC) 0.97. For the same molecule, the photoluminescence quantum yield came to 1 (in CCCCC); 1 (in CCCCCC); 0.95 (in CCCCCCCCC); 1 (in CCCCCCCCCC); 0.21 (in CCCCCCCO); 0.22 (in CCCCCCO). The photoluminescence quantum yield reads like this: (in CCCCCO) 0.28; (in CCCCO) 0.18; (in CCO) 0.07; (in CCOC(C)=O) 0.39; (in CCOCC) 0.6; (in CN(C)C=O) 0.16. Moreover, the photoluminescence quantum yield was 0.03 (in CO); 0.07 (in COCCOC); 0.15 (in CS(C)=O); 0.78 (in Cc1ccccc1); 0.84 (in Cc1ccccc1C); 0.58 (in ClC(Cl)Cl). In addition, the photoluminescence quantum yield by setting is: (in ClCCl) 0.45; (in NC=O) 0.02; (in OC1CCCCC1) 0.18; (in OCCO) 0.03; (in c1ccccc1) 0.76.
Take `Cn1cc(/C=C/C(=O)c2ccccc2)c2ccccc21`: the photoluminescence quantum yield came to 0.1 (in C1CCOC1); 0.114 (in C1COCCO1); 0.343 (in CC#N); 0.329 (in CC(C)=O); 0.231 (in CC(C)O); 0.209 (in CCC(=O)CC). Also, the photoluminescence quantum yield reads like this: (in CCCC#N) 0.217; (in CCCC(C)=O) 0.22; (in CCCCCCCCO) 0.345; (in CCCCCCO) 0.428; (in CCCCO) 0.333; (in CCCO) 0.5. Also, the photoluminescence quantum yield by setting is: (in CCO) 0.173; (in CN(C)C=O) 0.245; (in CO) 0.162; (in CS(C)=O) 0.62; (in ClC(Cl)Cl) 0.14; (in ClCCl) 0.394. Also, the photoluminescence quantum yield (in NC=O) amounted to 0.277, the photoluminescence quantum yield (in O) was 0.12 and the photoluminescence quantum yield (in OC1CCCCC1) is 0.778.
As for `O=c1oc2ccccc2c(O)c1C(CC(O)c1ccc(-c2ccc(Br)cc2)cc1)c1ccccc1` (stereo not given), the photoluminescence quantum yield reads like this: (in CC#N) 0.06; (in CCO) 0.058; (in CO) 0.034; (in O) 0.017.
For the molecule `Cc1ccc2c(c1)C(C)(C)c1cc(C)ccc1N2c1ccc2c(c1)C(C)(C)c1cc(N3c4ccc(C)cc4C(C)(C)c4cc(C)ccc43)ccc1S2(=O)=O`, where the note is “in O=P(c1ccccc1)(c1ccccc1)c1ccccc1Oc1ccccc1P(=O)(c1ccccc1)c1ccccc1”, the photoluminescence quantum yield is 0.73.
As to `COC(=O)c1ccc(O)c(-c2[nH]c(=O)n3c2-c2ccccc2C3=O)c1`, the photoluminescence quantum yield is, setting by setting: (in CC#N) 0.46; (in CO) 0.35; (in ClCCl) 0.86.
For the setting “in Cc1ccccc1”, `c1ccc2c(c1)c1ccccc1n2-c1ccc(-c2ccc(-c3ccc(-n4c5ccccc5c5ccccc54)nc3-n3c4ccccc4c4ccccc43)nn2)c(-n2c3ccccc3c3ccccc32)n1` returned a photoluminescence quantum yield of 0.36.
The molecule `CN(C)c1ccc(C2=C(c3ccccc3)c3sc4ccccc4[n+]3[B-](F)(F)O2)cc1` returned a photoluminescence quantum yield (in C1CCOC1) of 0.01.
As for `COC(=O)C[C@H](Cc1c[nH]c2ccccc12)NC(=O)[C@H](CC(=O)N[C@@H](CC1=CCc2ccccc21)C(=O)OC)NC(=O)[C@H](Cc1c[nH]c2ccccc12)NC(=O)OC(C)(C)C`, the photoluminescence quantum yield is, setting by setting: (in CC#N) 0.26; (in CCOC(C)=O) 0.22; (in CO) 0.1.
As for `N#Cc1nn(-c2ccccc2C(F)(F)F)nc1N1CCCC1`, the photoluminescence quantum yield (in CC#N) worked out at 0.71.
In the case of `O=c1oc2ccccc2c2cc(N3c4ccccc4Oc4ccccc43)ccc12`, the photoluminescence quantum yield (in c1cc(-c2cccc(-n3c4ccccc4c4ccccc43)c2)cc(-n2c3ccccc3c3ccccc32)c1) stood at 0.52.
`CCCCc1cc(-c2cccc(COC)c2)oc1-c1cccc(-c2cc(CCCC)c(-c3cccc(-c4cc(CCCC)c(-c5cccc(-c6oc(-c7cccc(-c8oc(-c9cccc(-c%10oc(-c%11cccc(COC)c%11)cc%10CCCC)c9)cc8CCCC)c7)cc6CCCC)c5)o4)c3)o2)c1` gave a photoluminescence quantum yield (in ClC(Cl)Cl) of 0.54.
On to `COc1ccc(-c2ccc(/C=C/c3cnc4ccccc4n3)cc2)cc1`, for which the photoluminescence quantum yield (in ClCCl) worked out at 0.42.
Under “in CC#N”, `Cc1ccc(C#Cc2cc3ccccc3oc2=O)cc1` registered a photoluminescence quantum yield of 0.73.

The values above are taken from the Deep4Chem optical property database.
